Values quoted from earlier work in US10328076B2, “Pharmaceutical composition comprising a triazole antifungal agent and method for preparation thereof” (PHARMATHEN S.A., priority 2014, dated 2019).
Where two headings read alike, the source gives them in different places.

Question: For C[C@@H](c1ncncc1F)[C@](O)(Cn1cncn1)c1ccc(F)cc1F [Voriconazole, (2R,3S)-2-(2,4-difluorophenyl)-3-(5-fluoropyrimidin-4-yl)-1-(1H-1,2,4-triazol-1-yl)butan-2-ol], which Solubility (in acetone) is on record?
Answer: freely soluble

Question: What about the Solubility (in dichlorometane) of the same compound?
Answer: freely soluble

Question: And the Solubility (in water)?
Answer: very slightly soluble
